Where two headings read alike, the source gives them in different places.
What was measured:
[1] = target: T1, Mnk1 (Homo sapiens, UniProt Q9BUB5); test: Protein level decrease by western blot, dose-response in CWR22Rv1 cells; assay type: cell-based; details: for times more effective (than Gal) in degrading Mnk1: from EC50 values
T1 construct: compound treatments (0–7.5 µM) of CWR22Rv1 cells for 72 h followed by western blot analysis of cells lysates; endogenous in cells; host or cells: CWR22Rv1
T1 sequence (Q9BUB5 whole entry): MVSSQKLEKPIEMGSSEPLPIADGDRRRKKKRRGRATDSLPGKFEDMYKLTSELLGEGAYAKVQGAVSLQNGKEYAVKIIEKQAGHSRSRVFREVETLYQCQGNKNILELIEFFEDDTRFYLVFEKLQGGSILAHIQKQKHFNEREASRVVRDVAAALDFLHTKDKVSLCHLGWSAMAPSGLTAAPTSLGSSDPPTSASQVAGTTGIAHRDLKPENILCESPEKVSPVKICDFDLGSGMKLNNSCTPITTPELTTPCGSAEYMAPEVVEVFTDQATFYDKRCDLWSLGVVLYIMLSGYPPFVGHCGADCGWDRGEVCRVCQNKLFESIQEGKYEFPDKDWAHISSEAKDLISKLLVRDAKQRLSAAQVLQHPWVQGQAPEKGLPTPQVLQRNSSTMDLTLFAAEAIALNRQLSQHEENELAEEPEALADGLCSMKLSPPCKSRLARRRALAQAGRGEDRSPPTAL
Description: Figure 4 Impact of Gal and NGGAs on AR/AR-V7 and Mnk1/2-eIF4E signaling pathways. (A) Western blot showing the effects of Gal and VNPT55 (55) on Mnk1, Mnk2, and peIF4E. (B) Western blot showing the effects of VNPP414 (414) and VNPP433-3β (433)) on Mnk1, Mnk2, and peIF4E. (C) Western blot showing dose-dependent effect of VNPP433-3β (433) on Mnk2, BMI-1, and peIF4E in CWR-R1 cells. (D) Western blot showing dose-dependent effect of Gal on Mnk1, Mnk2, BMI-1, and Snail1 in drug-resistant CWR-R1(10E) cells. (E) Western blot showing dose-dependent effect of VNPP433-3β (433) on Mnk1, Mnk2, BMI-1, and Snail1 in drug-resistant CWR-R1(10E) cells. (F) EC50 values (for fAR, ARV-7 and Mnk1) for compounds determined from dose–response curves upon compound treatments (0–7.5 µM) of CWR22Rv1 cells for 72 h followed by western blot analysis of cells lysates. Note: the numbers in parentheses in Figure 4B are concentrations of the agents in µM.
We further determined the effects of lead NGGAs on f-AR, AR-V7 and Mnk1 protein levels in CWR22Rv1 cells. Following agent treatments (0–7.5 µM), the EC50 values were determined from dose–response curves. […] Of note is the finding that although there was no dramatic difference between the agents in terms of their effects on f-AR suppression, there were significant differences in their relative potencies against AR-V7 and Mnk1.
Cells were lysed with radioimmunoprecipitation assay (RIPA) buffer (Sigma, St. Louis, MO, USA), supplemented with 1X protease inhibitors (Roche, Indianapolis, IN, USA), phosphatase inhibitors (Thermo Scientific, Waltham, MA, USA), 1 mmol/L EDTA and 1 mmol/L PMSF (Sigma). Western blot analyses were performed as in Kwegyir-Afful et al., 2015 [2].

[2] = Plasma pharmacokinetics after single IV, IP or PO dose; assay type: in vivo, male CD-1 mice; details: for bioavailability: read-out: F (%) absolute bioavailability
Procedure: These studies were conducted in male CD-1 mice (7–8 weeks old, weighing about 27–33 g) were obtained from Hylasco Bio-Technology Pvt. Ltd. (A Charles River Technology Licensee, Turkapally, India). The details are presented in the Supplementary Materials.
A generic gradient LC method with a short run times of 3.5 min for Gal and 4.5 min for VNPP414 and VNPP433-3β were developed for the analysis of Gal/analogs in plasma samples. The mobile phase flow rate was 1.0 mL/min with a split ratio of 1:1 to the ionization source. The mobile phase for Gal consisted of 10 mM ammonium acetate in water as aqueous component and 100% methanol as organic modifier. For the Gal analogs, the mobile phase consisted of 0.01% formic acid in water and 100% acetonitrile. The column and autosampler were maintained at 40°C and 15°C, respectively for all assays. The turbo ion spray source was operated with typical settings as follows: ionization mode, positive; curtain gas, 30 psi; nebulizer gas (GS1), 55 psi; heater gas (GS2), 50 (for Gal analyte) and 60 (for Gal analogs analytes) psi; nebulizer gas 55 psi; temperature, 550 °C. A summary of the ion transitions, collision energies and retention times for both the analytes (Gal, VNPP414 and VNPP433- […]
components were automatically integrated using Analyst software version 1.5.
Table S1. Optimized mass spectroscopic conditions. *IS: internal standard; **Gal had two daughter ions (m/z: 119.20 and 195.20) that were used for multiple reaction monitoring (MRM) in LC-MS/MS runs. Because we observed a poor shape peak of Gal with fragment of m/z 195.20 at lower levels (LLOQ: 1 ng/mL) in plasma samples, we used fragment m/z 119.20 for the PK study. We used fragment of m/z 195.20 when Gal was used as IS where the concentration was ~200 ng/mL. This fragment was stable throughout the study.
Analytes Parent ions Daughter ions Collision energy Declustering potentials […]
1.5. Pharmacokinetics of Gal, VNPP414 and VNPP433-3β in CD-1 Mice
Male CD-1 mice (7-8 weeks old, weighing about 27-33 g) were obtained from Hylasco Bio-Technology Pvt. Ltd (A Charles River Technology Licensee in India) were maintained in a controlled environment of about 25 °C, 50% relative humidity and a 12-h light/12-h dark cycle. The compounds were formulated in either 10% DMSO in 10% solutol in phosphate-buffered saline (PBS) for single intravenous doses (1 mg/kg) or in 40% β-cyclodextrin in saline for single intraperitoneal or oral doses (10 mg/kg). 10 ml/kg dose volume used for administrating the formulation for all the three routes (IV, IP and PO). The IV administration was performed through tail vein of mice as bolus. For IP route, the compound was dosed in intraperitoneal cavity using a 27-gauze needle. PO administration was performed through gastric gavage tube (aka feeding tube). Serial blood samples were collected from 3 mice per time-point (staggered bleeding approach was used for mice where one mice was bled maximum for three time within 24h) into vacutainers containing lithium heparin (anticoagulant) at and 24 h post dose after intraperitoneal or oral administration. In total, 81 mice were used for this study. At each time point 200 μL of blood was collected into vacutainers. Venous blood Samples were collected using retro orbital puncture method. Plasma was isolated by centrifugation at 10000 rpm for 10 min and stored frozen at -80°C until assay. Plasma pharmacokinetic parameters were calculated using the non-compartmental analysis tool of Phoenix software (Version 7, Pharsight) and were determined from individual animals in each group. The area under the plasma concentration-time curve (AUC0-t and AUCinf), elimination half-life (T1/2), clearance (CL), volume of distribution (Vd) and mean residence time (MRT) were calculated from intravenous group. The peak plasma concentration (Cmax), time to achieve peak plasma concentration (Tmax), AUC0-t and AUCinf, were […]
calculated for the IP and PO groups. Absolute oral bioavailability (%F) were calculated from the PO […]

[3] = PO 10 mg/kg, male CD-1 mice, 10 mg/kg
[4] = male, CD-1, mouse, in vivo, ip, 10 mg/kg, IP 10 mg/kg, male CD-1 mice
[5] = male, CD-1, mouse, in vivo, po, 10 mg/kg, PO 10 mg/kg, male CD-1 mice
[6] = mouse, in vivo, IP 10 mg/kg, male CD-1 mice, plasma
[7] = mouse, in vivo, PO 10 mg/kg, male CD-1 mice, plasma
[8] = 0–7.5 µM, 72 h, western blot, read-out: Mnk1 EC50
[9] = mouse, plasma, IP 10 mg/kg, male CD-1 mice
[10] = mouse, plasma, IV 1 mg/kg, male CD-1 mice
[11] = mouse, plasma, PO 10 mg/kg, male CD-1 mice
[12] = mouse, IP 10 mg/kg, male CD-1 mice, plasma
[13] = mouse, IV 1 mg/kg, male CD-1 mice, plasma
[14] = mouse, PO 10 mg/kg, male CD-1 mice, plasma

SMILES	times more effective (than Gal) in degrading Mnk1 [1] [times]	DC50 [1, 8] [nM]	half-life [2, 9] [h]	bioavailability [2, 9] [%]	half-life [2, 10] [h]	half-life [2, 11] [h]	bioavailability [2, 11] [%]	AUC(0-inf) [2, 12] [ng·h/mL]	Cmax [2, 12] [ng/mL]	AUC(0-inf) [2, 13] [ng·h/mL]	AUC(0-inf) [2, 14] [ng·h/mL]	Cmax [2, 14] [ng/mL]	other results
C[C@]12CC[C@H](n3ccnc3)CC1=CCC1C2CC[C@]2(C)C(n3cnc4ccccc43)=CCC12 (stereo partly drawn) [VNPP433-3β]	66.0												DC50 ([1]; read-out: Mnk1 EC50, 0–7.5 µM, 72 h, western blot): 80 nM; F (%) absolute bioavailability [2, 3]: 49.45%; T1/2 [2, 3]: 31.19 h; half-life [2, 4]: 22.4 h; bioavailability [2, 4]: 123%; half-life ([2]; male, CD-1, mouse, in vivo, iv, 1 mg/kg, IV 1 mg/kg, male CD-1 mice): 14.3 h; half-life [2, 5]: 31.2 h; bioavailability [2, 5]: ~50%; AUC ([2]; male, CD-1, mouse, in vivo, 10 mg/kg oral dosing, mice): 71.9 µM·h; Cmax ([2]; male, CD-1, mouse, in vivo, PO 10 mg/kg, plasma, converted from ng/mL): ~2000 nM; AUC(0-inf) [2, 6]: 57300 ng·h/mL; Cmax [2, 6]: 2290 ng/mL; AUC(0-inf) ([2]; mouse, in vivo, IV 1 mg/kg, male CD-1 mice, plasma): 3470 ng·h/mL; AUC(0-inf) [2, 7]: 31800 ng·h/mL; Cmax [2, 7]: 706 ng/mL
C[C@]12CC[C@H](O)CC1=CC[C@@H]1[C@@H]2CC[C@]2(C)C(n3cnc4ccccc43)=CC[C@@H]12 [Galeterone]		5290 ± 90	1.24	169	0.17	1.26	18.4	111	507	57.9	969	32.8	half-life ([2]; male, CD-1, mouse, plasma, range over IV, IP and PO routes, mice): 0.17 to 1.26 h
C[C@]12CC[C@H](OCc3ccncc3)CC1=CCC1C2CC[C@]2(C)C(n3cnc4ccccc43)=CCC12 (stereo partly shown) [VNPP414]	9.4	560 ± 70	6.25	157	7.48	4.3	19.4	8600	2170	547	1030	175	

Source: PMC6895912 (Cancers, 2019)
